Consider 3 compounds from patent US20040053826A1, “Uses of polypeptides” (priority 2000, published 2004).

Bridge positions count the residues as written; N and C are the ends. Ends that are not written are not given here.

Test [1] concerns Wistar male rats. The test is described as follows: Locomotion measurement: effects of diazepam on locomotion induced by intraventricular polypeptide (SEQ ID NO: 9) or PACAP38. Type of test: in vivo, rat. An excerpt: (§1) Each of Wistar male rats (8 weeks old) was anesthetized with pentobarbital and fixed on a stereotaxic apparatus. A guide cannula (AG-8, Eicom) was inserted into the lateral ventricle of each rat (AP: +8.1 mm, L: 1.8 mm, H: +7.1 mm). The rats were then allowed to recover for at least one week before the experiment. During the recovery period, handling was made every day to reduce stresses resulting from intraventricular administration.
The cannulated rats were transferred to a locomotion testing system (Supermex, Muromachi Kikai Co., Ltd.) and acclimatized overnight. The rats were transferred from the locomotion testing system and subcutaneously administered with diazepam (1 mg/kg). An hour later, the rats were intraventricularly administered with the polypeptide (SEQ ID NO: 9; 10 nmol) or PACAP38 (3 nmol) dissolved in phosphate buffered saline (PBS) at a flow rate of 2.5 μl/min for 4 minutes. Immediately after the administration, the rats were returned to the locomotion testing system and tested for their spontaneous locomotion (FIG. 4).

Test [2] concerns Wistar male rats. Put plainly: Locomotion measurement (spontaneous locomotion and number of rearings) after administration into the lateral ventricle. The format is in vivo, rat.
From the text: Wistar male rats (9 weeks old) were anesthetized with pentobarbital and a guide cannula (AG-8, Eicom) was inserted into the lateral ventricle of each rat (AP: +8.1 mm, L: 1.8 mm, H: +7.1 mm). The rats were then allowed to recover for at least one week before the experiment. During the recovery period, handling was made every day to reduce stresses resulting from intraventricular administration.
On the day before the experiment, the rats were transferred to a locomotion testing system for acclimation purposes. Under unanesthetized and unrestrained conditions, a microinjection cannula was attached to the guide cannula through which each rat was administered with the polypeptide (SEQ ID NO: 9; 10 nmol) dissolved in phosphate buffered saline (PBS) or PBS alone at a rate of 5 μl/min for 2 minutes. Immediately after the administration, the rats were returned to the locomotion testing system (Supermex, Muromachi Kikai Co., Ltd.) and tested for their spontaneous locomotion and the number of rearings (FIG. 1).
Wistar male rats (9 weeks old) were anesthetized with pentobarbital and a guide cannula (AG-8, Eicom) was inserted into the lateral ventricle of each rat (AP: 8.1 mm, L: 1.8 mm, H: 7.1 mm). The rats were then allowed to recover for at least one week before the experiment. During the recovery period, handling was made every day to reduce stresses resulting from intraventricular administration.
On the day before the experiment, the rats were transferred to a locomotion testing system for acclimation purposes. Under unanesthetized and unrestrained conditions, a microinjection cannula was attached to the guide cannula through which each rat was administered with the polypeptide (SEQ ID NO: 9; 1 nmol) dissolved in PBS or PBS alone in a volume of 10 μl (5 μl/min for 2 minutes). Immediately after the administration, the rats were returned to the locomotion testing system (Supermex, Muromachi Kikai Co., Ltd.) and tested for their spontaneous locomotion and the number of rearings (FIG. 2).
as §1
The cannulated rats were transferred to a locomotion testing system (Supermex, Muromachi Kikai Co., Ltd.) and acclimatized overnight. The rats were transferred from the locomotion testing system and intraventricularly administered with the polypeptide (SEQ ID NO: 9; 1 nmol or 10 nmol) dissolved in phosphate buffered saline (PBS) or PBS alone at a flow rate of 5 μl/min for 4 minutes. Immediately after the administration, the rats were returned to the locomotion testing system and tested for their spontaneous locomotion and the number of rearings.

Test [3] relates to C57BL/6N mice. Put plainly: Elevated plus maze test. The format is in vivo, mouse. To be noted: for (Open arm entries)/(open arm entries + closed arm entries): 30 minutes after administration, tested over 5 minutes. An excerpt: An acrylic maze having 4 arms (25 cm long, 8 cm wide) placed in the shape of a cross (elevated plus maze) was positioned in a sound-proof chamber under low illumination (0.5 lux). Two opposite arms of the elevated plus maze were enclosed by walls (closed arms) and the other two arms were wall-less (open arms). The maze was elevated 25 cm above the floor (FIG. 5).
After C57BL/6N mice were acclimatized in the laboratory, PBS containing the polypeptide (SEQ ID NO: 9; 1 nmol or 3 nmol) or PBS alone was administered in a volume of 5 μl into the lateral ventricle of each mouse using a double-needle (Matsumoto Seisakusho) under ether anesthesia. Thirty minutes after the administration, each mouse was placed on the elevated plus maze and tested over 5 minutes for the number of entries into each arm and the time spent on open arms.

For test [4], the system named is C57BL/6N mice. The test is described as follows: Hole board test. Type of test: in vivo, mouse. The note with it: 0.1, 0.3 or 3 nmol into the lateral ventricle, 30 minutes after administration, over 5 minutes. The method, then:
A polyvinyl chloride box having 4 holes (diameter: 3.8 cm) at its bottom was used as a hole board. Locomotion on the hole board was measured with a Supermex sensor (Muromachi Kikai Co., Ltd.). To measure the number of head dippings, MRS-110RX infrared-scanning sensors (Muromachi Kikai Co., Ltd.) were provided immediately below the respective holes.
After C57BL/6N mice were acclimatized in the laboratory, PBS containing the polypeptide (SEQ ID NO: 9; 0.1 nmol, 0.3 nmol or 3 nmol) or PBS alone was administered in a volume of 5 μl into the lateral ventricle of each mouse using a double-needle (Matsumoto Seisakusho) under ether anesthesia. Thirty minutes after the administration, each mouse was placed in the center of the hole board and tested over 5 minutes for locomotion and the number of head dippings.

[5] abbreviates: Example 1, 10 nmol into the lateral ventricle.
The mark [6] stands for this setting: Example 2, 1 nmol into the lateral ventricle.
Setting [7] is: Example 3, 10 nmol intraventricularly.

Turning to “PACAP38: PACAP38 known to have the ability to increase locomotion (HSDGIFTDSYSRYRKQMAVKKYLAAVLGKRYKQRVKNK; ends and bridges not checked; UniProt P18509 132-169, looked up)”, the spontaneous locomotion result in the test on Wistar male rats [1] (PACAP38 3 nmol intraventricularly) was “increase in locomotion”.

On to `CN1C(=O)CN=C(c2ccccc2)c2cc(Cl)ccc21` [Diazepam, diazepam], for which the “effect on the increase in locomotion induced by PACAP38” value in the test with Wistar male rats [1] (diazepam 1 mg/kg subcutaneously 1 hour before PACAP38 3 nmol intraventricularly) is “dose not affect”. The “effect on the increase in locomotion induced by the polypeptide (SEQ ID NO: 9)” value with Wistar male rats [1] (diazepam 1 mg/kg subcutaneously 1 hour before polypeptide (SEQ ID NO: 9) 10 nmol intraventricularly) is reported as “significantly inhibits”.

With “polypeptide (SEQ ID NO: 9): bovine SENR ligand peptide; the 6th and 11th cysteine residues form an intramolecular disulfide bond (GPSSECFWKYCV; disulfide 6-11)”, in the test on Wistar male rats [2] (setting [5]), the “locomotion after the initial decrease” value is listed as “increase in their locomotion”; the number of rearings entry is given as “same effects as found in spontaneous locomotion”; the “spontaneous locomotion immediately after the administration, as compared with the control rats” value was “tended to decrease”. Besides, in the test on Wistar male rats [2] (setting [6]), the “inhibition against a transient increase in locomotion as observed in 10 nmol administration” value is “did not show such an inhibition” and the “locomotion from immediately after the administration” value was “increase in their locomotion”. Also, the “locomotion and the number of rearings from immediately after the administration” value with Wistar male rats [2] (Example 3, 1 nmol intraventricularly) is “increases”. Further, in the test with Wistar male rats [2] (setting [7]), the “duration of the decreases in locomotion and number of rearings” value was “about 10 minutes”; the “duration of the increase in locomotion” value is recorded as “about 1 hour”; the “locomotion and the number of rearings immediately after the administration” value was “decreases”; the “locomotion following the transient decrease” value is given as “increase in locomotion”. For the same compound, the number of rearings in the test on Wistar male rats [2] (Example 3, 10 nmol intraventricularly, less significant tendency to increase) stood at 51.0±13.4 times/90 min. Also, the “(Open arm entries)/(open arm entries + closed arm entries)” value with C57BL/6N mice [3] (1 nmol into the lateral ventricle, n=20) came to 0.131 ± 0.009. Also, in the test on C57BL/6N mice [3] (1 nmol or 3 nmol into the lateral ventricle), the “probability to select open arms” value is on record as “reduced”. Besides, the “(Open arm entries)/(open arm entries + closed arm entries)” value with C57BL/6N mice [3] (3 nmol into the lateral ventricle, n=20, *p < 0.05, Dunnett) is 0.065 ± 0.018*. In addition, in the test on C57BL/6N mice [4], the “locomotion on the hole board” value is reported as “no change” and the “number of head dippings” value is “significant decrease”.
